Experimental data as given in ChEMBL document CHEMBL1142653, “In silico prediction of membrane permeability from calculated molecular parameters” (J Med Chem, 2005).

What was measured:
[1] = Apparent permeability of the compound was determined in MDCK (madin darby canine kidney) strain I; Activity = Papp 10e-6; assay type: ADME, Canis lupus familiaris; conditions: dog
[2] = Apparent permeability of the compound was determined inCaco-2 (human colon carcinoma) cells; Activity = Papp 10E-6; assay type: ADME; conditions: Caco-2

Row | Papp [1] | Papp [2] | Compound
1 | 37.8 ×10⁻⁶ cm/s | 18.2 ×10⁻⁶ cm/s | COCCc1ccc(OCC(O)CNC(C)C)cc1 (stereo unspecified) [METOPROLOL]
2 | 34.4 ×10⁻⁶ cm/s | 12.6 ×10⁻⁶ cm/s | CC(C)NCC(O)COc1cccc2ccccc12 (stereo unspecified) [PROPRANOLOL]
3 | 0.27 ×10⁻⁶ cm/s |  | CN/C(=C\[N+](=O)[O-])NCCSCc1ccc(CN(C)C)o1 [RANITIDINE]

Row | Compound | Papp [1] | Papp [2]
4 | O=C(N[C@H](CO)[C@H](O)c1ccc([N+](=O)[O-])cc1)C(Cl)Cl [CHLORAMPHENICOL] | 3.15 ×10⁻⁶ cm/s | 
